Assay [1] deals with JJ5 breast cancer cells. The experiment in a line: Growth inhibition assay against JJ5 breast cancer cells. Type of assay: cell-based, human. The note with it: 4 days culture. The procedure: Growth medium was added and the cells were cultured at 37° C./5% CO^2 for 4 days. The cells were then recovered by trypsinization and counted in a hemocytometer. Control dishes contained cells cultured in growth medium containing ^111In-DTPA or growth medium alone.

Assay [2] deals with JJ5 breast cancer cells. The experiment in a line: Cytotoxicity (colony-forming) assay against JJ5 breast cancer cells. To be noted: 14 days. It is filed as cell-based, human. On the procedure:
The number of cells seeded was varied from 3×10^4 to 3×10^6 cells to obtain approximately 400 viable colonies/dish taking into account the plating efficiency and the expected level of cytotoxicity. Control dishes contained JJ5 breast cancer cells which were incubated with normal saline. Growth medium was added and the cells were cultured at 37° C./5% CO^2 for 14 days. The growth medium was removed and the colonies were stained with methylene blue (1% in a 1:1 mixture of ethanol and water) then washed twice. The number of colonies per dish was counted using a manual colony counter (Manostat Corp). The plating efficiency was calculated by dividing the number of colonies observed by the number of cells seeded in each dish.

Assay [3] concerns JJ5 Breast Cancer cells (EGFR). The experiment in a line: Binding of EGF-^111In-labeled transferrin compound to breast cancer cells (radioligand binding, kinetics, retention). The arrangement: species or system human. The procedure:
For the normal breast cell line HBL-100, 8000 EGFR/cell has been reported. The expression of EGFR in breast cancer cell lines has a reported range of 800 EGFR/cell for MCF-7 cells to 10^6 EGFR/cell for MDA-MB-468 cells. […] Utilizing the Auger electron emitter ^111In was used in the initial experiments to illustrate the utility of the invention using EGF-^111In-labeled transferrin compounds. The EGF-^111In-labeled transferrin (0.25-80 ng) was incubated with 1.5×10^6 cells/dish JJ5 Breast Cancer (prepared from BCBM JJ5) cells in 1 mL of 0.1% human serum albumin in 35 mm multiwell culture dishes at 37° C. for 30 minutes. The cells were transferred to a centrifuge tube and centrifuged. The cell pellet was separated from the supernatant and counted in a g-scintillation counter to determine bound (B) and free (F) radioactivity. Non-specific binding was determined by conducting the assay in 100 nM hEGF. […] Internalized fraction was measured by determining the proportion of radioactivity which could not be displaced from the cell surface by 100 nM hEGF. Cell-associated binding (surface-binding and intracellular accumulation) was expressed as a percentage of medium radioactivity bound per mg of cell study protein.

As to `[In+3].[O-]c1cccc2cccnc12.[O-]c1cccc2cccnc12.[O-]c1cccc2cccnc12` [^111In-oxine, reference compound], the “growth inhibition of the JJ5 cells compared to the medium control” value in the assay on JJ5 breast cancer cells [1] (3.5 pCi/cell) came out at 91%. Besides, the cell killing entry in the assay on JJ5 breast cancer cells [2] (<6 pCi/cell) was “greater than 99%”.

On to “EGF-^111In-labeled transferrin compound: human EGF linked via PEG3400-biotin or peptide linker-biotin to streptavidin-transferrin, transferrin labeled with ^111In”, for which, in the assay on JJ5 breast cancer cells [1] (3.4 pCi/cell), the “growth inhibition of the JJ5 cells compared to the medium control” value was 83%. Besides, in the assay on JJ5 breast cancer cells [2] (8 pCi/cell), the “reduction in cell survival for JJ5 cells” value was determined as 99%. Besides, in assay [3] (JJ5 cells), the “internalization by cancer cells (in words)” value is “rapidly internalized” and the “number of binding sites” value is given as 2.7×10^6. Besides, in assay [3] (JJ5 cells, 37° C.), the “binding by the breast cancer cells (kinetics, in words)” value is on record as “rapidly bound” and the “time retained by the breast cancer cells” value is listed as “at least 24 hours”. In assay [3] (JJ5 cells, 37° C., 30 minutes), the “affinity constant for binding to JJ5 cells” value turned out to be 8e+08 L/mol. For the same molecule, the “^111In radioactivity lost from the cells in vitro” value in assay [3] (over a 24 hour period at 37° C.) is recorded as < 8%.

The record behind these values is US20040219103A1, “Methods useful for the diagnosis, imaging and treatment of tumors” (priority 2003, published 2004).
